Experimental findings from patent publication US20240009123A1, “MULTI-SUPPLEMENT DELIVERY SYSTEM” (priority 2022, published 2024) are described below.

The nature of data set [1]: Release of vitamins during tea bag steeping process (UV spectrophotometry). Type of data set: physicochemical. The settings on record: for release rate: 4° C., pH 5; for release rate (total amount released): initial 2-minute brewing period, water of pH 5, 4° C., tea bag, spray-dried powder of Example 1.
Experimental: To evaluate the release of encapsulated vitamins from the spray-dried powder into water, 30 mg spray-dried powders was placed in the tea bag, which was then immersed in a beaker containing 30 mL of deionized water (pH 5). The beaker was placed in a shaker and shaken slowly in a water bath at 4° C. or 100° C. At appropriate brewing time intervals, an aliquot of solution (0.5 mL) was removed with a pipette for measuring the released vitamins. To determine the amount of water-soluble vitamins, the pH of solution was adjusted to pH 1, followed by filtration (filter pore size 50 μm). […] The release rate was determined by the following equation: release rate (%)=(released vitamins/initially added vitamins)×100.
At appropriate steeping time intervals, an aliquot of solution (0.5 mL) was removed with a pipette for measuring the released vitamins. To determine the amount of water-soluble vitamins, the pH of solution was adjusted to pH 1, followed by filtration (filter pore size 50 μm). The filtrate was then collected and quantified using a UV-spectrophotometer for absorbance. A blank was prepared using deionized water at pH of 1 (adjusted by HCl).
The absorbance of Vitamin B6 was measured at a wavelength of 291 nm. The absorbance of Vitamin B12 was measured at a wavelength of 361 nm.
At appropriate steeping time intervals, an aliquot of solution (0.5 mL) was removed with a pipette for measuring the released vitamins. To determine the amount of oil-soluble vitamins, the pH of the solution was adjusted to a pH of 1, followed by filtration (filter pore size 50 μm). Then, 3 mL organic solvent (chloroform+methanol, 1:1, v/v) was added into the solution to extract the oil-soluble vitamins. After centrifugation at 1000 g for 5 min, the layer of chloroform was removed and quantified using the UV-spectrophotometer for absorbance. A blank was prepared using chloroform.
Using a UV-spectrophotometer, the absorbance of Vitamin A was measured at a wavelength of 326 nm. The absorbance of Vitamin E was measured at a wavelength of 295 nm.
Data set [2] can be described thus: Surface charge (zeta potential) at pH 5. It counts as physicochemical. On the procedure: A facile, green, and powerful strategy was explored to engineer a robust O/W emulsion for co-delivery of water-soluble vitamins (VC, VB6, VB12) and oil-soluble vitamins (VA, VE). The preparation involved the complexation of chitosan and water-soluble vitamins and subsequent formation of chitosan-stabilized O/W emulsions. The approach is illustrated in FIG. 1A. First, the chitosan-vitamin complexes were prepared by mixing solutions of chitosan, anthocyanins, and water-soluble vitamins in deionized water at pH 5. […] The resulting chitosan-vitamin complexes were mixed with canola oil containing oil-soluble vitamins. After homogenization by ultrasonication, the chitosan-stabilized emulsions can form as optically opaque homogenous suspensions. In the ultrasonication process, the chitosan-vitamin complexes tended to coat on the surface of oil droplets, providing a physical layer for stabilization of oil-soluble vitamins. […] The value of the zeta potential (mV) indicates the degree of electrostatic repulsion and is the indicator/predictor of the stability of the dispersed particles. The absolute value difference of positive and negative electrostatic charges, measured in mV, between vitamins and chitosan is not the only factor that keeps the vitamins on the interface.

Turning to `CCCCCCCCCCCCCCCC(=O)OC/C=C(C)/C=C/C=C(C)/C=C/C1=C(C)CCCC1(C)C` [VA, retinol palmitate], in data set [1] (at 5 min), the release rate is listed as 84.0%. Besides, the charge entry in data set [2] is listed as “negatively charged”.
With `O=C1O[C@H]([C@@H](O)CO)C(O)=C1O` [VC, Vitamin C], the “release rate (total amount released)” value in data set [1] is 96.5%. In data set [2], the charge result was “negatively charged”.
In the case of Vitamin B6 [VB6], the “release rate (total amount released)” value in data set [1] is listed as 98.8%. Further, in data set [2], the charge result was “negatively charged”.
For Vitamin B12 [VB12] the same measures were 100% and “slightly positively charged”.
Turning to anthocyanin [anthocyanins], in data set [2], the charge entry is recorded as “negatively charged”.
For the molecule tocopherols, mixed, FG [VE], the release rate in data set [1] (at 10 min) was determined as 80.4%.
